Among the data in ChEMBL document CHEMBL1914352, “Design, synthesis, docking, and biological evaluation of novel diazide-containing isoxazole- and pyrazole-based histone deacetylase probes” (J Med Chem, 2011) are IC50 and EC50 values, retold here.

Test [1] deals with T1, Histone deacetylase 8 (Homo sapiens, UniProt Q9BY41).
T1 sequence (Q9BY41 whole entry): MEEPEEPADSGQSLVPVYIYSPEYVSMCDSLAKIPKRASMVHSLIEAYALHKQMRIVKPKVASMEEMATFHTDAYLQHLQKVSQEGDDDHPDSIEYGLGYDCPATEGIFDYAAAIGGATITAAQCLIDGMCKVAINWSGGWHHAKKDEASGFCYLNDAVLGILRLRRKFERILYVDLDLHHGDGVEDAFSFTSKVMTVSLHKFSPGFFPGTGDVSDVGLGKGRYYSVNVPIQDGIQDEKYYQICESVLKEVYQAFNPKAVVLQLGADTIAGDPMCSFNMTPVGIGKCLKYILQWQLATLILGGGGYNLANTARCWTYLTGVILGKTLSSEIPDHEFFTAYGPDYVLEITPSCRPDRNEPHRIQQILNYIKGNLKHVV
Description: Inhibition of human recombinant HDAC8 using Fluor de Lys as substrate.

Test [2] concerns SH-SY5Y. Description: cells. The note with it: Homo sapiens, 72 h. Type of test: functional, cell-based.
Test [3] addresses T2, Polyamine deacetylase HDAC10 (Homo sapiens, UniProt Q969S8).
T2 sequence (Q969S8 whole entry): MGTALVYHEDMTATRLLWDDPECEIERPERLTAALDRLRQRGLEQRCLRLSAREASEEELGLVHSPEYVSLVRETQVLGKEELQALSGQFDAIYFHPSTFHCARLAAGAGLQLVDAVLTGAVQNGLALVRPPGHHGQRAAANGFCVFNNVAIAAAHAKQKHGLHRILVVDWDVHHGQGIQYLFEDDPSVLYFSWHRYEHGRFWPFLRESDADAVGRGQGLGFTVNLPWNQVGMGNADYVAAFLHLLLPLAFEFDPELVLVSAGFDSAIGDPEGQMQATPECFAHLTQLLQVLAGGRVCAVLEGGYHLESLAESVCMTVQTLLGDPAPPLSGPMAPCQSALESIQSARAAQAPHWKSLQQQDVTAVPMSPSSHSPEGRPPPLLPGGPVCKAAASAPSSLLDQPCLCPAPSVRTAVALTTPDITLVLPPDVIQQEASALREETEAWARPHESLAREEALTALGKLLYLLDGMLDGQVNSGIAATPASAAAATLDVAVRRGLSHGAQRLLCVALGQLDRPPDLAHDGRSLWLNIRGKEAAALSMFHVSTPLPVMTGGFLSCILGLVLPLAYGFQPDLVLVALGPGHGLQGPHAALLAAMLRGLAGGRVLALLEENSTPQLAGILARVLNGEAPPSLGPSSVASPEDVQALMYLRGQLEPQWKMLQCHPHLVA
Description: Inhibition of human recombinant HDAC10 using fluorophore-conjugated substrate Boc-L-Lys(Ac)-AMC after 60 mins.

The subject of test [4] is HepG2. Put plainly: cells. The note with it: Homo sapiens, HepG2, 72 h. The test is classed as functional, cell-based.
Test [5] has as its target Histone deacetylase 9 (Homo sapiens, UniProt Q9UKV0). Put plainly: Inhibition of human recombinant HDAC9 using fluorophore-conjugated substrate Boc-L-Lys(Ac)-AMC after 60 mins.
In test [6] the test system is HeLa. Description: cells. Type of test: functional, cell-based. The note with it: Homo sapiens, 48 h.
Test [7] has as its system SH-SY5Y. Description: cells. Type of test: functional, cell-based. The note with it: Homo sapiens, 48 h.
The target of test [8] is Histone deacetylase 4 (Homo sapiens, UniProt P56524). Description: Inhibition of human recombinant HDAC4 using fluorophore-conjugated substrate Boc-L-Lys(Ac)-AMC after 60 mins.
Histone deacetylase 4, sequence (P56524 whole entry): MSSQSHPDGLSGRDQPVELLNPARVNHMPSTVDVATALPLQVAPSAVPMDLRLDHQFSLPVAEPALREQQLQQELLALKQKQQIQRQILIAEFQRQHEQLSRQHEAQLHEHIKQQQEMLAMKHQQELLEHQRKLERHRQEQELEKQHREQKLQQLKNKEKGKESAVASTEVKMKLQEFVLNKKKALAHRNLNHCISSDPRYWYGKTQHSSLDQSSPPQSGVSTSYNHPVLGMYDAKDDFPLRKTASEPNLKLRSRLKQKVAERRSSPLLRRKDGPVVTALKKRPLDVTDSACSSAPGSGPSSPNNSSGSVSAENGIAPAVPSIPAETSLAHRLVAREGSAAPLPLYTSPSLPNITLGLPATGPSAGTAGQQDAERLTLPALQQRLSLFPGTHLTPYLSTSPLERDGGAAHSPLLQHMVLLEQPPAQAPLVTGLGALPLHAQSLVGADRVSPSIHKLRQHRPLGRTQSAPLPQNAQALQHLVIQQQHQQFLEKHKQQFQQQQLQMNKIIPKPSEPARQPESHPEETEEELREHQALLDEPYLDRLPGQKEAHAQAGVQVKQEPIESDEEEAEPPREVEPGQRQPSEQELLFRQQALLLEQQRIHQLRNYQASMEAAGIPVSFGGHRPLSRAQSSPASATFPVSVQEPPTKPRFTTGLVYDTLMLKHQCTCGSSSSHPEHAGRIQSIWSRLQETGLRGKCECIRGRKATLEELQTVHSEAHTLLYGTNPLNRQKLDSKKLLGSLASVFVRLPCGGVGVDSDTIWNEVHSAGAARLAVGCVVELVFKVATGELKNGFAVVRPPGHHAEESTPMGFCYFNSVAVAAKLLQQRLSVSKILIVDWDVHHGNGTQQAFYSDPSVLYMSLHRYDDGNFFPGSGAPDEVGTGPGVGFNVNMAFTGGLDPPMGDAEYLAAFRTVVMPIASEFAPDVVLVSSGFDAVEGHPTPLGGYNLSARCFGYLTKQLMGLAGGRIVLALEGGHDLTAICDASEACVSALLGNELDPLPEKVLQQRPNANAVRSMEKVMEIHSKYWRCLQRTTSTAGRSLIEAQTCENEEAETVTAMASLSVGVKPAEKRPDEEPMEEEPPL
The target in test [9] is T3, Histone deacetylase 11 (Homo sapiens, UniProt Q96DB2).
T3 sequence (Q96DB2 whole entry): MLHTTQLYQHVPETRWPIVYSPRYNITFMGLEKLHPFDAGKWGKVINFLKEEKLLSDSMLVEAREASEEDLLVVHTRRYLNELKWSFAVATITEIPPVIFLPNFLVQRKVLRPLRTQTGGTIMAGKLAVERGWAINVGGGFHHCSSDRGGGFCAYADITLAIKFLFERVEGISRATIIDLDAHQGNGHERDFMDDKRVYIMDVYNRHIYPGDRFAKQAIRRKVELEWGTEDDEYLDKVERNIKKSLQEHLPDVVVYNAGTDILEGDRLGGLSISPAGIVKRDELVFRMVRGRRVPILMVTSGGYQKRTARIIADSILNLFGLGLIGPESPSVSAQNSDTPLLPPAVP
Put plainly: Inhibition of human recombinant HDAC11 using fluorophore-conjugated substrate Boc-L-Lys(Ac)-AMC after 60 mins.

Test [10] concerns HeLa. Put plainly: cells. The test is classed as functional, cell-based. The note with it: Homo sapiens, 24 h.
For test [11], the system named is HepG2. Put plainly: cells. Type of test: functional, cell-based. The note with it: Homo sapiens, HepG2, 48 h.
The target of test [12] is Histone deacetylase 5 (Homo sapiens, UniProt Q9UQL6). Put plainly: Inhibition of human recombinant HDAC5 using fluorophore-conjugated substrate Boc-L-Lys(Ac)-AMC after 60 mins.
Histone deacetylase 5, sequence (Q9UQL6 whole entry): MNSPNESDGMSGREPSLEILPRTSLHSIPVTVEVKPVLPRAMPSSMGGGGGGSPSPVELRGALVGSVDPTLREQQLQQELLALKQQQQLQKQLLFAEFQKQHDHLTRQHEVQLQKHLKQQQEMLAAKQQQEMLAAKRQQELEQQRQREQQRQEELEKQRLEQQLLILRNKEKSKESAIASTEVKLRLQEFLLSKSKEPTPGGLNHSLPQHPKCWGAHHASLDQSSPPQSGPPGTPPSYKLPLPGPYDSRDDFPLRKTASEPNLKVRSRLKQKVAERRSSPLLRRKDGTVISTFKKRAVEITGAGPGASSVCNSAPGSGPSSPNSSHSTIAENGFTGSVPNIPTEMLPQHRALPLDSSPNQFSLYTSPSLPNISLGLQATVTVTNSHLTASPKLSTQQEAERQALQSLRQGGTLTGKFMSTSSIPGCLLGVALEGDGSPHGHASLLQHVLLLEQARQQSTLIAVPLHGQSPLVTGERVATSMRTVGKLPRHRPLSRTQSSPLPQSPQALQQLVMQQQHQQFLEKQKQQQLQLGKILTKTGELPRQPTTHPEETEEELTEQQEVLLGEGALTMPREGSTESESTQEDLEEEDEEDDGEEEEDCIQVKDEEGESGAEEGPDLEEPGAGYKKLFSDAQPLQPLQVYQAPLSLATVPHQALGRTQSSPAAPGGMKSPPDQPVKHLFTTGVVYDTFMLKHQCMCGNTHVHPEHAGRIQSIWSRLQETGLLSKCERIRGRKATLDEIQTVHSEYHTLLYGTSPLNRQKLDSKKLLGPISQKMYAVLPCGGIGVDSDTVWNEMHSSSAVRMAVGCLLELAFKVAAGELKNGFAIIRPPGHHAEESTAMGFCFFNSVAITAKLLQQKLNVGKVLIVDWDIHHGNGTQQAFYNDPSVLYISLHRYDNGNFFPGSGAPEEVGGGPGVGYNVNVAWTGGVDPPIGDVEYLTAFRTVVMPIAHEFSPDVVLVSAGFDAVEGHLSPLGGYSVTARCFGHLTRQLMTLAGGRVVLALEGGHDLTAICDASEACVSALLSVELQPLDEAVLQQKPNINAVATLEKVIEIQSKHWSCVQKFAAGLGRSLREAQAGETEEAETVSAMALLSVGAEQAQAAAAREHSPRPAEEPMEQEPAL
In test [13] the target is T4, Histone deacetylase 7 (Homo sapiens, UniProt Q8WUI4).
T4 sequence (Q8WUI4 whole entry): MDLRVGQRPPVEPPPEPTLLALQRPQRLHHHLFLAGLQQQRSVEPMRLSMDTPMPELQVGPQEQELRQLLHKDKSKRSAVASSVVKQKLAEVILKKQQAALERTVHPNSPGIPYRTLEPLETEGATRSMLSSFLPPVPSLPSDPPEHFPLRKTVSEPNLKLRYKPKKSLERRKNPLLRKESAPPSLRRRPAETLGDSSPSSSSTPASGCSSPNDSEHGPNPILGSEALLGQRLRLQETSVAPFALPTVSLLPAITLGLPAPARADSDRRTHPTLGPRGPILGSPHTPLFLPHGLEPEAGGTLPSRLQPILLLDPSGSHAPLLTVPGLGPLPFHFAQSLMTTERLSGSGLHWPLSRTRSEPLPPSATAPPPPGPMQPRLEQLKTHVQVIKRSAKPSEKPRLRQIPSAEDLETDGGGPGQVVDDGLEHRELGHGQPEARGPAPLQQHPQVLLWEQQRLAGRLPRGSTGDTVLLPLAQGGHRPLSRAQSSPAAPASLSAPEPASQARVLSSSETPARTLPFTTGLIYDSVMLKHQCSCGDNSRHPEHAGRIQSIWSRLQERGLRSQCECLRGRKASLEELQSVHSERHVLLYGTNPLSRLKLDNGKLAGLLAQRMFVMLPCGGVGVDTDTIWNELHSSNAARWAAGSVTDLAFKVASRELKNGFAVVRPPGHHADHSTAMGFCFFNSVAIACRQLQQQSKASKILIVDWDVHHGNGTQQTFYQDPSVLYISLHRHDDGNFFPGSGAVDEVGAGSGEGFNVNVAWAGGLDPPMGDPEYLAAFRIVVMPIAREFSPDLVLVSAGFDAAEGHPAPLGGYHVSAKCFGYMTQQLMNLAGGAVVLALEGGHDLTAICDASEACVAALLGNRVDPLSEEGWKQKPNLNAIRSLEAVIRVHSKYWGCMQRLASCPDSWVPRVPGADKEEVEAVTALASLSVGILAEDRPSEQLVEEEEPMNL
Description: Inhibition of human recombinant HDAC7 using fluorophore-conjugated substrate Boc-L-Lys(Ac)-AMC after 60 mins.

Histone deacetylase 9, sequence (Q9UKV0 whole entry): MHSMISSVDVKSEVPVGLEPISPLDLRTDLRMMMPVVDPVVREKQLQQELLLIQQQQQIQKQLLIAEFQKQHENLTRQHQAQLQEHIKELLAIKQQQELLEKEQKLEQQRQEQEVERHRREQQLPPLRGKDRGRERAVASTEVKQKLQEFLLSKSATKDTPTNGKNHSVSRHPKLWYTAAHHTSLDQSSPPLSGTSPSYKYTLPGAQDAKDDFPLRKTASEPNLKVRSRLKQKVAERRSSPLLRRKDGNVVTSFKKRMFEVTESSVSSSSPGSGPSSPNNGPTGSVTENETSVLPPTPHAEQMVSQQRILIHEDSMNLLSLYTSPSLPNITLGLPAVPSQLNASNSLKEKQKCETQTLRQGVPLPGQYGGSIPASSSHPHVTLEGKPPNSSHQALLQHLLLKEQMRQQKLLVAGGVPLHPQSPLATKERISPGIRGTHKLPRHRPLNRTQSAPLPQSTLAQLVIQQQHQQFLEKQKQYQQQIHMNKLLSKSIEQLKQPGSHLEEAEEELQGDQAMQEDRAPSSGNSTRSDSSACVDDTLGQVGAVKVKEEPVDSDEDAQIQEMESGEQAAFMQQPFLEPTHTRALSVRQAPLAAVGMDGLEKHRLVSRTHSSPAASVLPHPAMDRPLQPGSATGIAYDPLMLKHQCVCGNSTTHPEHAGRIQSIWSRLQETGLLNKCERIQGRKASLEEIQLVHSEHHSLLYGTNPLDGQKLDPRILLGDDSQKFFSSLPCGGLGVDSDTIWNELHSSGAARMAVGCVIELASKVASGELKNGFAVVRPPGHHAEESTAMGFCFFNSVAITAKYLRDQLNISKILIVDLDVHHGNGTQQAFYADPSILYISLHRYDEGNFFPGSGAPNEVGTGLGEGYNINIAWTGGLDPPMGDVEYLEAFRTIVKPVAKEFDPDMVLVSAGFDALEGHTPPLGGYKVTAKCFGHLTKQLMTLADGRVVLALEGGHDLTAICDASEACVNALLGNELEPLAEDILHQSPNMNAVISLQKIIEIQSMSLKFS

With `[N-]=[N+]=NCc1cc(N=[N+]=[N-])cc(C(=O)Nc2ccc(-c3cc(C(=O)NCCCCCCC(=O)NO)no3)cc2)c1`, the concentration for half-maximal inhibition (IC50) (as a rule, the concentration that gives 50% inhibition) in test [1] stood at 0.651 µM; in [3], 0.776 µM; in test [5], 0.0378 µM; in [8], 0.432 µM; in test [9] it was 0.116 µM; in test [12], 0.932 µM. Besides, the concentration for half-maximal inhibition (IC50) in test [13] was determined as 2.23 µM. The EC50 (commonly the concentration needed to bring the measured effect to its halfway point) in test [2] was found to be 23 µM; in test [4], 4.9 µM; in test [6], 10.7 µM; in [7], 32.2 µM; in [10], 26.5 µM; in test [11] it was 11.5 µM.

Take `[N-]=[N+]=NCc1cc(Cn2cc(NC(=O)CCCCCCC(=O)NO)cn2)cc(N=[N+]=[N-])c1`: the IC50 is 0.017 µM in test [1]; 0.14 µM in [3]; 0.704 µM in test [5]; 0.379 µM in test [8]; 0.476 µM in [9]; 0.892 µM in [12]. In test [13], the IC50 was 4.51 µM. Also, the EC50 in test [2] was 20.8 µM; in [4], 13.4 µM; in [6], 23.7 µM; in [7], 35.9 µM; in [10] it was 30.6 µM; in test [11], 24.3 µM.
